Source: patent US20250326771A1, “PIPERAZINE DERIVATIVES USEFUL IN HIV THERAPY” (VIIV HEALTHCARE COMPANY, priority 2022, published 2025)
pIC50: −log10 of the molar value. Where two headings read alike, the source gives them in different places.

How the values were obtained:
[1] = tested on: Jurkat HIV-luciferase clones; assay: Jurkat latency reversal assay; assay type: cell-based; conditions: Homo sapiens, 48 h; Jurkat latency reversal assay potency; read-out: Jurkat pEC50 (converted)
Procedure, shortened: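 Pooled Jurkat clones C16, 115 and N6, each carrying one or two integrated HIV-luciferase proviruses and kept in 500 nM EFV, were exposed to 3-fold, 14-point compound titrations in duplicate (10 μM top, 0.5% DMSO) for 48 h at 37° C. Luciferase luminescence was fitted by four-parameter logistic regression for EC50 and maximal percent activation versus vehicle.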

cIAP1-BIR3 = cIAP1-BIR3 (Homo sapiens (Human), UniProt Q13490); assay: BIR binding assay (FRET competition), cIAP1 BIR3; conditions: for cIAP1 BIR3 vs BIR2 separation window: fold separation (FS) for cIAP1
Procedure, shortened: (§1)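 His-tagged domains (50 nM cIAP1-BIR3, 325 nM cIAP2-BIR2, 325 nM cIAP1-BIR2, 100 nM XIAP-BIR3) compete with compounds for a 200 nM AlexaFluor647-labelled SMAC/DIABLO peptide in HEPES buffer, pH 7.4, for 60 min. Then 2 nM Eu-W1024 is added for 30 min. The 615/665 nm ratio is fit by four-parameter fit to give IC50.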

cIAP1-BIR2 = cIAP1-BIR2 (Homo sapiens (Human), UniProt Q13490); assay: BIR binding assay (FRET competition), cIAP1 BIR2
Procedure, shortened: as §1

cIAP2-BIR3 = cIAP2-BIR3 (Homo sapiens (Human), UniProt Q13489); assay: BIR binding assay (FRET competition), cIAP2 BIR3; conditions: for cIAP2 BIR3 vs BIR2 separation window: fold separation (FS) for cIAP2
cIAP2-BIR2 = cIAP2-BIR2 (Homo sapiens (Human), UniProt Q13489); assay: BIR binding assay (FRET competition), cIAP2 BIR2
Procedure, shortened: as §1

XIAP-BIR3 = XIAP-BIR3 (Homo sapiens (Human), UniProt P98170); assay: BIR binding assay (FRET competition), XIAP BIR3; conditions: for XIAP BIR3 vs BIR2 separation window: fold separation (FS) for XIAP
Procedure, shortened: as §1

XIAP-BIR2 = XIAP-BIR2 (Homo sapiens (Human), UniProt P98170); assay: BIR binding assay (FRET competition), XIAP BIR2; conditions: read-out: XIAP BIR2 (pIC50) (converted)
Procedure, shortened: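 Compounds in a 15-point, 3-fold series competed with an AlexaFluor647 SMAC peptide (AVPIAQKSE, 200 nM) for 200 nM His-tagged XIAP-BIR2 over 60 min in pH 7.4 HEPES/CHAPS/DTT buffer. Eu-W1024 (2 nM) was then added for 30 min. IC50 and pIC50 were derived from the 615 nm/665 nm emission ratio by variable-slope fit.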

Chain of cIAP1-BIR3 (Q13490 253-363): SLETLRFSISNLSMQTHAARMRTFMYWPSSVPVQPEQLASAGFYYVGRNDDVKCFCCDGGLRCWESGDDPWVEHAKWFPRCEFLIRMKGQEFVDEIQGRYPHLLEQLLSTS
Chain of cIAP2-BIR3 (Q13489 238-349): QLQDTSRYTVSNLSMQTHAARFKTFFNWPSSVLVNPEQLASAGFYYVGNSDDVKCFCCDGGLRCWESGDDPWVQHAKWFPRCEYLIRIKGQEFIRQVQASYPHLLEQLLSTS
Chain of XIAP-BIR2 (P98170 124-240): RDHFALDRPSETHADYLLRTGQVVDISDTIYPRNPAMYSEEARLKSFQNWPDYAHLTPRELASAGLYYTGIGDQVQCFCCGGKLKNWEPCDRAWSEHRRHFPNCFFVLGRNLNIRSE
Chain of XIAP-BIR3 (P98170 241-356): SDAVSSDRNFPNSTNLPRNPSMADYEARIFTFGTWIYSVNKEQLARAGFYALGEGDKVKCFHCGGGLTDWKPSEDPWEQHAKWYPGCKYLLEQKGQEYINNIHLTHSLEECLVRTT
Chain of cIAP2-BIR2 (Q13489 158-242): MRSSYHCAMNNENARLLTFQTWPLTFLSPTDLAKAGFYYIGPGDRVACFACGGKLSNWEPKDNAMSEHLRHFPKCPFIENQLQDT
Chain of cIAP1-BIR2 (Q13490 173-257): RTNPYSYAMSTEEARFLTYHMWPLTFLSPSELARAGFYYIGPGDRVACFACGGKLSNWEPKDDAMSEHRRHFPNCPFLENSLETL

Compound | EC50 [1] [nM] | pIC50 (cIAP1-BIR3) | cIAP1 BIR3 vs BIR2 separation window (cIAP1-BIR3) | pIC50 (cIAP1-BIR2) | pIC50 (cIAP2-BIR3) | cIAP2 BIR3 vs BIR2 separation window (cIAP2-BIR3) | pIC50 (cIAP2-BIR2) | pIC50 (XIAP-BIR3) | XIAP BIR3 vs BIR2 separation window (XIAP-BIR3) | IC50 (XIAP-BIR2; FRET competition) [nM] | IC50 (XIAP-BIR2; FRET competition binding) [nM]
Cc1ccc(Oc2cc3c([nH]c2=O)C(C)(C)CN3C(=O)CN2C[C@@H](C)NC[C@@H]2CN2CCO[C@H](C(=O)NCc3ccc(CNC(=O)[C@@H]4CN(C[C@H]5CN[C@H](C)CN5CC(=O)N5CC(C)(C)c6[nH]c(=O)c(Oc7ccc(C)cc7)cc65)CCO4)cc3)C2)cc1 [Compound 184, (2S,2′S)-N,N′-(1,4-phenylenebis(methylene)) bis(4-(((2R,5R)-1-(2-(3,3-dimethyl-5-oxo-6-(p-tolyloxy)-2,3,4,5-tetrahydro-1H-pyrrolo[3,2-b]pyridin-1-yl)-2-oxoethyl)-5-methylpiperazin-2-yl)methyl)morpholine-2-carboxamide)] | 316 to 3310 | 7.80 to 8.10 | +++ (10,000>FS>1,000) | 5.00 to 5.50 | 8.10 to 8.86 | ++++ (FS>10,000) | 5.00 to 5.50 | 6.30 to 7.50 | +++ (10,000>FS>1,000) | 10000 to 51300 | –
C[C@@H]1CN(CC(=O)N2CC(C)(C)c3[nH]c(=O)c(Oc4ccccc4)cc32)[C@@H](CN2CCO[C@H](C(=O)NCc3ccc(CNC(=O)[C@@H]4CN(C[C@H]5CN[C@H](C)CN5CC(=O)N5CC(C)(C)c6[nH]c(=O)c(Oc7ccccc7)cc65)CCO4)cc3)C2)CN1 [Compound 185, (2S,2′S)-N,N′-(1,4-phenylenebis(methylene)) bis(4-(((2R,5R)-1-(2-(3,3-dimethyl-5-oxo-6-phenoxy-2,3,4,5-tetrahydro-1H-pyrrolo[3,2-b]pyridin-1-yl)-2-oxoethyl)-5-methylpiperazin-2-yl)methyl)morpholine-2-carboxamide)] | 316 to 3310 | 7.50 to 7.80 | +++ (10,000>FS>1,000) | 5.00 to 5.50 | 8.10 to 8.86 | ++++ (FS>10,000) | 4.29 to 5.00 | 6.30 to 7.50 | +++ (10,000>FS>1,000) | 10000 to 51300 | –
C[C@@H]1CN(CC(=O)N2CC(C)(C)c3[nH]c(=O)c(Cc4ccccc4)cc32)[C@@H](CN2CCO[C@H](C(=O)NCc3ccc(CNC(=O)[C@@H]4CN(C[C@H]5CN[C@H](C)CN5CC(=O)N5CC(C)(C)c6[nH]c(=O)c(Cc7ccccc7)cc65)CCO4)cc3)C2)CN1 [Compound 186, (2S,2′S)-N,N′-(1,4-phenylenebis(methylene)) bis(4-(((2R,5R)-1-(2-(6-benzyl-3,3-dimethyl-5-oxo-2,3,4,5-tetrahydro-1H-pyrrolo[3,2-b]pyridin-1-yl)-2-oxoethyl)-5-methylpiperazin-2-yl)methyl)morpholine-2-carboxamide)] | 12.6 to 63.1 | 7.80 to 8.10 | ++ (1,000>FS>100) | 6.00 to 7.65 | 8.10 to 8.86 | +++ (10,000>FS>1,000) | 5.50 to 6.00 | 7.50 to 7.80 | ++++ (FS>10,000) | 10000 to 51300 | –
C[C@@H]1CN(CC(=O)N2CC(C)(C)c3[nH]c(=O)c(Cc4ccc(F)cc4F)cc32)[C@@H](CN2CCO[C@H](COc3cccc(OC[C@@H]4CN(C[C@H]5CN[C@H](C)CN5CC(=O)N5CC(C)(C)c6[nH]c(=O)c(Cc7ccc(F)cc7F)cc65)CCO4)c3)C2)CN1 [Compound 190] | 0.49 to 12.6 | 7.50 to 7.80 | +++ (10,000>FS>1,000) | 5.00 to 5.50 | 7.50 to 7.80 | +++ (10,000>FS>1,000) | 5.00 to 5.50 | 7.50 to 7.80 | ++++ (FS>10,000) | 10000 to 51300 | –
C[C@@H]1CN(CC(=O)N2CC(C)(C)c3[nH]c(=O)c(Cc4ccc(F)cc4)cc32)[C@@H](CN2CCN(C(=O)CCCCCCCCC(=O)N3CCN(C[C@H]4CN[C@H](C)CN4CC(=O)N4CC(C)(C)c5[nH]c(=O)c(Cc6ccc(F)cc6)cc54)[C@H](C)C3)C[C@H]2C)CN1 [Example 3, 1,10-bis((R)-4-(((2R,5R)-1-(2-(6-(4-fluorobenzyl)-3,3-dimethyl-5-oxo-2,3,4,5-tetrahydro-1H-pyrrolo[3,2-b]pyridin-1-yl)-2-oxoethyl)-5-methylpiperazin-2-yl)methyl)-3-methylpiperazin-1-yl)decane-1,10-dione] | 12.6 to 63.1 | 7.80 to 8.10 | ++ (1,000>FS>100) | 6.00 to 7.65 | 7.50 to 7.80 | ++ (1,000>FS>100) | 5.50 to 6.00 | 6.30 to 7.50 | +++ (10,000>FS>1,000) | – | 10000 to 51300
C[C@@H]1CN(CC(=O)N2CC(C)(C)c3[nH]c(=O)c(Cc4ccc(F)cc4)cc32)[C@@H](CN2CCN(C(=O)COCCOCC(=O)N3CCN(C[C@H]4CN[C@H](C)CN4CC(=O)N4CC(C)(C)c5[nH]c(=O)c(Cc6ccc(F)cc6)cc54)[C@H](C)C3)C[C@H]2C)CN1 [Example 5, 1,1′-(2,2′-((3R,3′R,6R,6′R)-(((2R,2′R)-(2,2′-(ethane-1,2-diylbis(oxy))bis(acetyl))bis(2-methylpiperazine-4,1-diyl))bis(methylene))bis(3-methylpiperazine-6,1-diyl))bis(acetyl))bis(6-(4-fluorobenzyl)-3,3-dimethyl-1,2,3,4-tetrahydro-5H-pyrrolo[3,2-b]pyridin-5-one)] | 63.1 to 316 | 6.30 to 7.50 | ++ (1,000>FS>100) | 5.00 to 5.50 | 7.50 to 7.80 | ++ (1,000>FS>100) | 5.50 to 6.00 | 6.30 to 7.50 | ++++ (FS>10,000) | – | 10000 to 51300
C[C@@H]1CN(CC(=O)N2CC(C)(C)c3[nH]c(=O)c(Cc4ccc(F)cc4)cc32)[C@@H](CN2CCN(C(=O)Cc3ccccc3CC(=O)N3CCN(C[C@H]4CN[C@H](C)CN4CC(=O)N4CC(C)(C)c5[nH]c(=O)c(Cc6ccc(F)cc6)cc54)[C@H](C)C3)C[C@H]2C)CN1 [Example 7, 1,1′-(2,2′-((3R,3′R,6R,6′R)-(((2R,2′R)-(2,2′-(1,2-phenylene)bis(acetyl))bis(2-methylpiperazine-4,1-diyl))bis(methylene))bis(3-methylpiperazine-6,1-diyl))bis(acetyl))bis(6-(4-fluorobenzyl)-3,3-dimethyl-1,2,3,4-tetrahydro-5H-pyrrolo[3,2-b]pyridin-5-one)] | 63.1 to 316 | 7.50 to 7.80 | – | 6.00 to 7.65 | 7.50 to 7.80 | – | 6.00 to 7.65 | 7.50 to 7.80 | – | – | 1000 to 3160
C[C@@H]1CN(CC(=O)N2CC(C)(C)c3[nH]c(=O)c(Cc4ccc(F)cc4)cc32)[C@@H](CN2CCN(C(=O)COc3cccc(OCC(=O)N4CCN(C[C@H]5CN[C@H](C)CN5CC(=O)N5CC(C)(C)c6[nH]c(=O)c(Cc7ccc(F)cc7)cc65)[C@H](C)C4)c3)C[C@H]2C)CN1 [Example 11, 1,1′-(2,2′-((3R,3′R,6R,6′R)-(((2R,2′R)-(2,2′-(1,3-phenylenebis(oxy))bis(acetyl))bis(2-methylpiperazine-4,1-diyl))bis(methylene))bis(3-methylpiperazine-6,1-diyl))bis(acetyl))bis(6-(4-fluorobenzyl)-3,3-dimethyl-1,2,3,4-tetrahydro-5H-pyrrolo[3,2-b]pyridin-5-one)] | 63.1 to 316 | 7.50 to 7.80 | ++ (1,000>FS>100) | 5.50 to 6.00 | 7.50 to 7.80 | ++ (1,000>FS>100) | 5.50 to 6.00 | 6.30 to 7.50 | ++++ (FS>10,000) | – | 10000 to 51300
